66 compounds from publication PMC10206591, “Identification of small molecules capable of enhancing viral membrane fusion” (Virology Journal, 2023) can be followed below.

Counter-ions that a name gives are not always drawn.

The subject of the test is SARS-CoV-2 S-mediated membrane fusion.

On to `CC=CC(=O)N(CC)c1ccccc1C` (mixture of isomers) [Crotamiton], for which the Z-score is recorded as 2,94. Consider `O=c1[nH]cc(F)c(=O)[nH]1` [5-fluorouracil], for which the Z-score is reported as 3,16. `CC(=O)c1ccc2c(c1)N(CCCN(C)C)c1ccccc1S2.O=C(O)/C=C\C(=O)O` [Acetopromazine maleate salt]: the Z-score is given as 1,71.

Regarding `CCCSc1ccc2nc(NC(=O)OC)[nH]c2c1` [Albendazole], the Z-score is listed as 1,67. On to `C=CC[C@]1(O)CC[C@H]2[C@@H]3CCC4=CC(=O)CCC4=C3C=C[C@@]21C` [Altrenogest], for which the Z-score is reported as 2,61. The figure for `CCCCCC[C@H]1C(=O)O[C@H](C)[C@H](NC(=O)c2cccc(NC=O)c2O)C(=O)O[C@@H](C)[C@@H]1OC(=O)CC(C)C` [Antimycin A] is 4,08; for `CC(C)c1c(C(=O)Nc2ccccc2)c(-c2ccccc2)c(-c2ccc(F)cc2)n1CC[C@@H](O)C[C@@H](O)CC(=O)O` [Atorvastatin] it is 1,88; for `Nc1nc(O)c2[nH]nnc2n1` [Azaguanine-8] it is 6,79. Consider `CCCC1C(=O)N2C(N(C)C)=Nc3ccc(C)cc3N2C1=O` (stereo not drawn) [Azapropazone], for which the Z-score was 1,91. For the compound `CN1CCCC(n2nc(Cc3ccc(Cl)cc3)c3ccccc3c2=O)CC1` (stereo not drawn) [Azelastine hydrochloride], the Z-score is 1,52. To `Cl.N[C@@H]1CCCCN(c2c(F)cc3c(=O)c(C(=O)O)cn(C4CC4)c3c2Cl)C1` [Besifloxacin hydrochloride] belongs 2,15; to `CC(C)C[C@H]1C(=O)N2CCC[C@H]2[C@]2(O)O[C@](NC(=O)[C@@H]3C=C4c5cccc6[nH]c(Br)c(c56)C[C@H]4N(C)C3)(C(C)C)C(=O)N12.CS(=O)(=O)O` [Bromocryptine mesylate], 5,89; to `CCCCCCNC(=O)n1cc(F)c(=O)[nH]c1=O` [Carmofur], 4,69. On to `O=C(N[C@H](CO)[C@H](O)c1ccc([N+](=O)[O-])cc1)C(Cl)Cl` [Chloramphenicol], for which the Z-score is on record as 2,64. Take `Nc1nc(Cl)nc2c1ncn2[C@H]1C[C@H](O)[C@@H](CO)O1` [Cladribine]: the Z-score was 1,60. Take `CCCCCCC[N+](CC)(CC)CCCCc1ccc(Cl)cc1.Cc1ccc(S(=O)(=O)[O-])cc1` [Clofilium tosylate]: the Z-score is listed as 2,76.

With `COc1cc2c(c(OC)c1OC)-c1ccc(OC)c(=O)cc1[C@@H](NC(C)=O)CC2` [Colchicine], the Z-score was 1,93. For the compound `CN(C)/N=N/c1[nH]cnc1C(N)=O` [Dacarbazine], the Z-score was 2,34.

Turning to `COc1cccc2c1C(=O)c1c(O)c3c(c(O)c1C2=O)C[C@@](O)(C(C)=O)C[C@@H]3O[C@H]1C[C@H](N)[C@H](O)[C@H](C)O1` [Daunorubicin hydrochloride], the Z-score was 1,79. For `Cc1cc(N)c2ccccc2[n+]1CCCCCCCCCC[n+]1c(C)cc(N)c2ccccc21` [Dequalinium dichloride], the Z-score is 4,90.

With `Clc1ccc2c(c1)CCc1cccnc1C2=C1CCNCC1` [Desloratadine], the Z-score is 1,59. To `CC1(C)O[C@@H]2C[C@H]3[C@@H]4CCC5=CC(=O)C=C[C@]5(C)[C@H]4[C@@H](O)C[C@]3(C)[C@]2(C(=O)CO)O1` [Desonide] belongs 1,59; to `CC(=O)O[C@@]12CO[C@@H]1C[C@H](O)[C@@]1(C)C(=O)[C@H](O)C3=C(C)[C@@H](OC(=O)[C@H](O)[C@@H](NC(=O)OC(C)(C)C)c4ccccc4)C[C@@](O)([C@@H](OC(=O)c4ccccc4)[C@H]21)C3(C)C` [Docetaxel], 1,72. Regarding `COc1cccc2c1C(=O)c1c(O)c3c(c(O)c1C2=O)C[C@@](O)(C(=O)CO)C[C@@H]3O[C@H]1C[C@H](N)[C@H](O)[C@H](C)O1` [Doxorubicin hydrochloride], the Z-score is reported as 4,48.

On to `C[C@H]1c2cccc(O)c2C(=O)C2=C(O)[C@]3(O)C(=O)C(C(N)=O)=C(O)[C@@H](N(C)C)[C@@H]3[C@@H](O)[C@@H]21` [Doxycycline hydrochloride], for which the Z-score is on record as 3,00.

Regarding `C=CCOC(Cn1ccnc1)c1ccc(Cl)cc1Cl` (stereo not drawn) [Enilconazole], the Z-score is listed as 3,25.

For `C[C@]12CC[C@H]3C(=CCc4cc(O)ccc43)[C@@H]1CCC2=O` [Equilin], the Z-score is on record as 1,98. For the compound `C[C@]12CC[C@@H]3c4ccc(OC(=O)N(CCCl)CCCl)cc4CC[C@H]3[C@@H]1CC[C@@H]2O` [Estramustine], the Z-score is 3,30. Consider `CCOc1ccc(Cc2nccc3cc(OCC)c(OCC)cc23)cc1OCC` [Ethaverine hydrochloride], for which the Z-score is reported as 4,10. The figure for `C#C[C@]1(O)CC[C@H]2[C@@H]3CCc4cc(OC)ccc4[C@H]3CC[C@@]21C` [Ethynylestradiol 3-methyl ether] is 1,52.

Take `O=c1[nH]c(=O)n([C@H]2C[C@H](O)[C@@H](CO)O2)cc1F` [Floxuridine]: the Z-score was 4,71. Regarding `COC(=O)Nc1nc2cc(C(=O)c3ccc(F)cc3)ccc2[nH]1` [Flubendazol], the Z-score is 3,95. `CC(=O)O[C@H]1C[C@@]2(C)[C@@H](C[C@@H](O)[C@H]3[C@@]4(C)CC[C@@H](O)[C@@H](C)[C@@H]4CC[C@@]32C)/C1=C(\CCC=C(C)C)C(=O)O` [Fusidic acid sodium salt]: the Z-score is 2,35. With `COc1cc2ncnc(Nc3ccc(F)c(Cl)c3)c2cc1OCCCN1CCOCC1` [Gefitinib], the Z-score is reported as 3,33. The figure for `Oc1c(Cl)cc(Cl)c(Cl)c1Cc1c(O)c(Cl)cc(Cl)c1Cl` [Hexachlorophene] is 3,99; for `CC[C@H](c1ccc(O)cc1)[C@@H](CC)c1ccc(O)cc1` [Hexestrol] it is 2,65. As for `CN1CCCN(C(c2ccccc2)c2ccc(Cl)cc2)CC1.Cl.Cl` (stereo not drawn) [Homochlorcyclizine dihydrochloride], the Z-score is reported as 2,19. For the compound `CC(C)C(=O)c1c(C(C)C)nn2ccccc12` [Ibudilast], the Z-score is reported as 1,71. In the case of `Cc1ccc(NC(=O)c2ccc(CN3CCN(C)CC3)cc2)cc1Nc1nccc(-c2cccnc2)n1` [Imatinib], the Z-score is 2,20. Regarding `CC(C)Oc1ccc2c(=O)c(-c3ccccc3)coc2c1` [Ipriflavone], the Z-score was 2,37. The figure for `CCc1c2c(nc3ccc(OC(=O)N4CCC(N5CCCCC5)CC4)cc13)-c1cc3c(c(=O)n1C2)COC(=O)[C@]3(O)CC.Cl.O.O.O` [Irinotecan hydrochloride trihydrate] is 4,23; for `Cc1c(OCC(F)(F)F)ccnc1C[S+]([O-])c1nc2ccccc2[nH]1` (stereo not drawn) [Lansoprazole] it is 3,43. For `CNCCCC12CCC(c3ccccc31)c1ccccc12` [Maprotiline hydrochloride], the Z-score is 2,05.

For `O=C([O-])c1ccccc1-c1c2cc(Br)c(=O)cc-2oc2[c]([Hg+])c([O-])c(Br)cc12.[Na+].[Na+].[OH-]` [Merbromin], the Z-score is on record as 8,74.

As for `COC(=O)Nc1nc2ccc(SC(C)C)cc2[nH]1` [Methiazole], the Z-score is recorded as 3,16.

Take `CC[C@H](C)C(=O)O[C@H]1CCC=C2C=C[C@H](C)[C@H](CC[C@@H]3C[C@@H](O)CC(=O)O3)[C@H]21` [Mevastatin]: the Z-score is on record as 1,92. Consider `CN(C)c1ccc(O)c2c1C[C@H]1C[C@H]3[C@H](N(C)C)C(O)=C(C(N)=O)C(=O)[C@@]3(O)C(O)=C1C2=O` [Minocycline hydrochloride], for which the Z-score is recorded as 4,43. Turning to `CN(c1nccc(=O)[nH]1)C1CCN(c2nc3ccccc3n2Cc2ccc(F)cc2)CC1` [Mizolastine], the Z-score was 2,15. Take `C[C@@H]1C[C@H]2[C@@H]3CCC4=CC(=O)C=C[C@]4(C)[C@@]3(Cl)[C@@H](O)C[C@]2(C)[C@@]1(OC(=O)c1ccco1)C(=O)CCl` [Mometasone furoate]: the Z-score was 2,51.

Regarding `C/C(=C\C(=O)OCCCCCCCCC(=O)O)C[C@@H]1OC[C@H](C[C@@H]2O[C@H]2[C@@H](C)[C@H](C)O)[C@@H](O)[C@H]1O` [Mupirocin], the Z-score was 1,57. Take `O=C1CN(/N=C/c2ccc([N+](=O)[O-])o2)C(=O)N1` [Nitrofurantoin]: the Z-score was 2,23.

For the compound `COC(=O)Nc1nc2ccc(C(=O)c3cccs3)cc2[nH]1` [Nocodazole], the Z-score is given as 2,99. `COC(=O)Nc1nc2ccc([S+]([O-])c3ccccc3)cc2[nH]1` (stereo not drawn) [Oxfendazol]: the Z-score is given as 1,63. `CCCOc1ccc2nc(NC(=O)OC)[nH]c2c1` [Oxibendazol]: the Z-score was 2,13. Regarding `CN(C)[C@@H]1C(O)=C(C(N)=O)C(=O)[C@@]2(O)C(O)=C3C(=O)c4c(O)cccc4[C@@](C)(O)[C@H]3[C@H](O)[C@@H]12` [Oxytetracycline dihydrate], the Z-score is given as 2,06. The figure for `COc1ccc(Cc2nccc3cc(OC)c(OC)cc23)cc1OC` [Papaverine hydrochloride] is 4,33; for `CCCCc1ccc2[nH]c(NC(=O)OC)nc2c1` [Parbendazole] it is 2,56; for `N=C(N)c1ccc(OCCCCCOc2ccc(C(=N)N)cc2)cc1` [Pentamidine isethionate] it is 6,07.

Consider `O=C(O)CN(CCN(CC(=O)O)CC(=O)O)CCN(CC(=O)O)CC(=O)O` [Pentetic acid], for which the Z-score is recorded as 2,14. Regarding `C1CCC(C(CC2CCCCN2)C2CCCCC2)CC1` (stereo not drawn) [Perhexiline maleate], the Z-score is 2,68. Take `CC(=O)Nc1ccc(OCC(O)CNC(C)C)cc1` (stereo not drawn) [Practolol]: the Z-score is listed as 1,57.

For the compound `COCCCOc1ccnc(C[S+]([O-])c2nc3ccccc3[nH]2)c1C` (stereo not drawn) [Rabeprazole Sodium salt], the Z-score is 3,89. To `O=C(O)c1cn(-c2ccc(F)cc2)c2cc(N3CCNCC3)c(F)cc2c1=O` [Sarafloxacin] belongs 2,16; to `C[C@@H]1CN(c2c(F)c(N)c3c(=O)c(C(=O)O)cn(C4CC4)c3c2F)C[C@H](C)N1` [Sparfloxacin], 2,09; to `CS(=O)(=O)c1ccc([C@@H](O)[C@@H](CO)NC(=O)C(Cl)Cl)cc1` [Thiamphenicol], 2,42. To `CN1CCN(CCCN2c3ccccc3Sc3ccc(S(=O)(=O)N(C)C)cc32)CC1.CS(=O)(=O)O.CS(=O)(=O)O` [Thioproperazine dimesylate] belongs 2,39.
